From patent US7683069B2, “3-substituted-4-pyrimidone derivatives” (Mitsubishi Tanabe Pharma Corporation, priority 2002, dated 2010)
pIC50: −log10 of the molar value.

The molecules below were run against T1, bovine cerebral TPK1 (Bos taurus, UniProt A0A3Q1MT31) (assay: Inhibitory activity against P-GS1 phosphorylation by bovine cerebral TPK1). Details: 41.7 μM [γ-32P] ATP, 25° C., 2 hours, pH 6.5.
T1 construct: bovine cerebral TPK1; from tissue; host or cells: bovine brain (cerebrum)
T1 sequence (A0A3Q1MT31 1-419): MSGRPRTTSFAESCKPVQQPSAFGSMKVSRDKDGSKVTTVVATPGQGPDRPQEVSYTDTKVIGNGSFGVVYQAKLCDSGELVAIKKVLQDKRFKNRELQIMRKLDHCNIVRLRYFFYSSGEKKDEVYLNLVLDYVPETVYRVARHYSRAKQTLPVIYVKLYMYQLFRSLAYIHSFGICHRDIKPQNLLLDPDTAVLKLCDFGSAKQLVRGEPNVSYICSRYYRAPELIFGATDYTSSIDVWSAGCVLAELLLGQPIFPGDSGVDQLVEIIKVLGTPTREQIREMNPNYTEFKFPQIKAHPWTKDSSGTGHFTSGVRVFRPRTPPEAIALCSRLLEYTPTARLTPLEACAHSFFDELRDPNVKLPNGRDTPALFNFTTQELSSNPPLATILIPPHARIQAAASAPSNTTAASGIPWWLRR
Assay type: biochemical
Description: Inhibitory Activity of the Medicament of the Present Invention Against P-GS1 Phosphorylation by Bovine Cerebral TPK1
A mixture containing 100 mM MES-sodium hydroxide (pH 6.5), 1 mM magnesium acetate, 0.5 mM EGTA, 5 mM β-mercaptoethanol, 0.02% Tween 20, 10% glycerol, 12 μg/ml P-GS1, 41.7 μM [γ-^32P] ATP (68 kBq/ml), bovine cerebral TPK1 and a compound shown in Table (a final mixture contained 1.7% DMSO deriving from a solution of a test compound prepared in the presence of 10% DMSO) was used as a reaction system. The phosphorylation was started by adding ATP, and the reaction was conducted at 25° C. for 2 hours, and then stopped by adding 21% perchloric-acid on ice cooling. The reaction mixture was centrifuged at 12,000 rpm for 5 minutes and adsorbed on P81 paper (Whatmann), and then the paper was washed four times with 75 mM phosphoric acid, three times with water and once with acetone. The paper was dried, and the residual radioactivity was measured using a liquid scintillation counter.
Cn1c(N2CCC=C(c3ccccc3)C2)nc(-c2ccncc2)cc1=O [Compound A001, 2-(5-phenyl-3,6-dihydro-2H-pyridin-1-yl)-3-methyl-6-pyridin-4-yl-3H-pyrimidin-4-one] showed a pIC50 of 8.15.
Cn1c(N2CCC=C(c3ccccc3F)C2)nc(-c2ccncc2)cc1=O [Compound A002, 2-[5-(2-fluorophenyl)-3,6-dihydro-2H-pyridin-1-yl]-3-methyl-6-pyridin-4-yl-3H-pyrimidin-4-one] showed a pIC50 of 8.92.
Work on Cn1c(N2CCC=C(c3ccc(F)cc3)C2)nc(-c2ccncc2)cc1=O [Compound A004, 2-[5-(4-fluorophenyl)-3,6-dihydro-2H-pyridin-1-yl]-3-methyl-6-pyridin-4-yl-3H-pyrimidin-4-one] yielded a pIC50 of 7.89.
Cn1c(N2CCC=C(c3ccc(F)cc3F)C2)nc(-c2ccncc2)cc1=O [Compound A012, 2-[5-(2,4-difluorophenyl)-3,6-dihydro-2H-pyridin-1-yl]-3-methyl-6-pyridin-4-yl-3H-pyrimidin-4-one] showed a pIC50 of 7.77.
With COc1ccccc1C1=CCCN(c2nc(-c3ccncc3)cc(=O)n2C)C1 [Compound A020, 2-[5-(2-methoxyphenyl)-3,6-dihydro-2H-pyridin-1-yl]-3-methyl-6-pyridin-4-yl-3H-pyrimidin-4-one] the pIC50 was 8.30.
COc1ccc(C2=CCCN(c3nc(-c4ccncc4)cc(=O)n3C)C2)cc1 [Compound A022, 2-[5-(4-methoxyphenyl)-3,6-dihydro-2H-pyridin-1-yl]-3-methyl-6-pyridin-4-yl-3H-pyrimidin-4-one] was tested, and the pIC50 was 8.06.
With COc1cccc(OC)c1C1=CCCN(c2nc(-c3ccncc3)cc(=O)n2C)C1 [Compound A026, 2-[5-(2,6-dimethoxyphenyl)-3,6-dihydro-2H-pyridin-1-yl]-3-methyl-6-pyridin-4-yl-3H-pyrimidin-4-one] the pIC50 was 7.80.
In the case of Cn1c(N2CCC=C(c3ccccc3C(F)(F)F)C2)nc(-c2ccncc2)cc1=O [Compound A027, 2-[5-(2-trifluoromethylphenyl)-3,6-dihydro-2H-pyridin-1-yl]-3-methyl-6-pyridin-4-yl-3H-pyrimidin-4-one], the pIC50 was 7.51.
In the case of Cn1c(N2CCC=C(Cc3ccccc3)C2)nc(-c2ccncc2)cc1=O [Compound A050, 2-(5-benzyl-3,6-dihydro-2H-pyridin-1-yl)-3-methyl-6-pyridin-4-yl-3H-pyrimidin-4-one], the pIC50 was 8.10.
Molecule Cn1c(N2CCC=C(COc3ccc(F)cc3)C2)nc(-c2ccncc2)cc1=O [Compound A056, 2-[5-(4-fluorophenoxymethyl)-3,6-dihydro-2H-pyridin-1-yl]-3-methyl-6-pyridin-4-yl-3H-pyrimidin-4-one] has a pIC50 of 7.57.
With Cn1c(N2CCC=C(c3ccc(C(=O)N4CCCC4)cc3)C2)nc(-c2ccncc2)cc1=O [Compound A057, 2-[5-(4-pyrrolidinylcarbonylphenyl)-3,6-dihydro-2H-pyridin-1-yl]-3-methyl-6-pyridin-4-yl-3H-pyrimidin-4-one] the pIC50 was 7.62.
Cn1c(N2CCC=C(c3ccccc3)C2)nc(-c2ccncn2)cc1=O [Compound B001, 2-(5-phenyl-3,6-dihydro-2H-pyridin-1-yl)-3-methyl-6-pyrimidin-4-yl-3H-pyrimidin-4-one] was tested, and the pIC50 was 8.19.
Cn1c(N2CCC=C(c3ccccc3F)C2)nc(-c2ccncn2)cc1=O [Compound B002, 2-[5-(2-fluorophenyl)-3,6-dihydro-2H-pyridin-1-yl]-3-methyl-6-pyrimidin-4-yl-3H-pyrimidin-4-one] gave a pIC50 of 8.96.
Work on Cn1c(N2CCC=C(c3ccc(F)cc3)C2)nc(-c2ccncn2)cc1=O [Compound B004, 2-[5-(4-fluorophenyl)-3,6-dihydro-2H-pyridin-1-yl]-3-methyl-6-pyrimidin-4-yl-3H-pyrimidin-4-one] yielded a pIC50 of 8.20.
For Cn1c(N2CCC=C(c3ccccc3Cl)C2)nc(-c2ccncn2)cc1=O [Compound B005, 2-[5-(2-chlorophenyl)-3,6-dihydro-2H-pyridin-1-yl]-3-methyl-6-pyrimidin-4-yl-3H-pyrimidin-4-one], the pIC50 was 9.42.
Cn1c(N2CCC=C(c3ccc(F)cc3F)C2)nc(-c2ccncn2)cc1=O [Compound B012, 2-[5-(2,4-difluorophenyl)-3,6-dihydro-2H-pyridin-1-yl]-3-methyl-6-pyrimidin-4-yl-3H-pyrimidin-4-one] was tested, and the pIC50 was 8.41.
In the case of Cn1c(N2CCC=C(c3ccc(Cl)cc3Cl)C2)nc(-c2ccncn2)cc1=O [Compound B017, 2-[5-(2,4-dichlorophenyl)-3,6-dihydro-2H-pyridin-1-yl]-3-methyl-6-pyrimidin-4-yl-3H-pyrimidin-4-one], the pIC50 was 8.25.
COc1ccc(C2=CCCN(c3nc(-c4ccncn4)cc(=O)n3C)C2)cc1 [Compound B022, 2-[5-(4-methoxyphenyl)-3,6-dihydro-2H-pyridin-1-yl]-3-methyl-6-pyrimidin-4-yl-3H-pyrimidin-4-one] showed a pIC50 of 8.11.
For COc1cccc(OC)c1C1=CCCN(c2nc(-c3ccncn3)cc(=O)n2C)C1 [Compound B026, 2-[5-(2,6-dimethoxyphenyl)-3,6-dihydro-2H-pyridin-1-yl]-3-methyl-6-pyrimidin-4-yl-3H-pyrimidin-4-one], the pIC50 was 8.62.
For Cn1c(N2CCC=C(c3ccccc3C(F)(F)F)C2)nc(-c2ccncn2)cc1=O [Compound B027, 2-[5-(2-trifluoromethylphenyl)-3,6-dihydro-2H-pyridin-1-yl]-3-methyl-6-pyrimidin-4-yl-3H-pyrimidin-4-one], the pIC50 was 8.59.
Molecule Cn1c(N2CCC=C(c3ccccc3-c3ccccc3)C2)nc(-c2ccncn2)cc1=O [Compound B033, 2-(5-biphenyl-2-yl-3,6-dihydro-2H-pyridin-1-yl)-3-methyl-6-pyrimidin-4-yl-3H-pyrimidin-4-one] has a pIC50 of 7.77.
For Cn1c(N2CCC=C(c3ccsc3)C2)nc(-c2ccncn2)cc1=O [Compound B043, 2-(5-thiophen-3-yl-3,6-dihydro-2H-pyridin-1-yl)-3-methyl-6-pyrimidin-4-yl-3H-pyrimidin-4-one], the pIC50 was 7.77.
In the case of Cn1c(N2CCC=C(c3cccs3)C2)nc(-c2ccncn2)cc1=O [Compound B044, 2-(5-thiophen-2-yl-3,6-dihydro-2H-pyridin-1-yl)-3-methyl-6-pyrimidin-4-yl-3H-pyrimidin-4-one], the pIC50 was 8.05.
Cn1c(N2CCC=C(c3noc4ccccc34)C2)nc(-c2ccncn2)cc1=O [Compound B049, 2-[5-(benzisoxazole-3-yl)-3,6-dihydro-2H-pyridin-1-yl]-3-methyl-6-pyrimidin-4-yl-3H-pyrimidin-4-one] gave a pIC50 of 8.29.
Work on Cn1c(N2CCC=C(c3ccc(C(=O)N4CCCC4)cc3)C2)nc(-c2ccncn2)cc1=O [Compound B057, 2-[5-(4-pyrrolidinylcarbonylphenyl)-3,6-dihydro-2H-pyridin-1-yl]-3-methyl-6-pyrimidin-4-yl-3H-pyrimidin-4-one] yielded a pIC50 of 8.17.
